# Reference: ChEMBL document CHEMBL1127634, “Calculation of relative differences in the binding free energies of HIV1 protease inhibitors: a thermodynamic cycle perturbation approach” (J Med Chem, 1994)
# Target: Human immunodeficiency virus type 1 protease (Human immunodeficiency virus 1, UniProt Q72874)
# Experiment: Binding affinity against HIV -1 protease
row,Compound,Ki
1,C[C@H](N)C(=O)N[C@@H](C)C(=O)N[C@@H](Cc1ccccc1)[C@@H](O)CCC(=O)NC(c1ccccc1)c1cc2ccccc2[nH]1 (stereo not given in full),43 nM
2,C[C@H](N)C(=O)N[C@@H](C)C(=O)N[C@@H](Cc1ccccc1)[C@@H](O)CCC(=O)NC(c1ccccc1)c1nc2ccccc2[nH]1 (stereo not given in full),5370 nM
3,O=C(CC[C@H](O)[C@H](Cc1ccccc1)NC(=O)CC(NC(=O)c1ccc2ccccc2n1)C(=O)O)NC(c1cccc(C(F)(F)F)c1)c1cc2ccccc2[nH]1 (stereo not given in full),33 nM
4,Cc1cccc(C(NC(=O)CC[C@H](O)[C@H](Cc2ccccc2)NC(=O)CC(NC(=O)c2ccc3ccccc3n2)C(=O)O)c2cc3ccccc3[nH]2)c1 (stereo not given in full),39 nM
5,O=C(CC[C@H](O)[C@H](Cc1ccccc1)NC(=O)CC(NC(=O)c1ccc2ccccc2n1)C(=O)O)NC(c1ccccc1)c1cc2ccccc2[nH]1 (stereo not given in full),200 nM
